From patent publication US12552804B2, “Tricyclic heterocycles as FGFR inhibitors” (Incyte Corporation, priority 2019, dated 2026)

Target: wild-type un-phosphorylated FGFR3 protein (Homo sapiens, UniProt P22607)
Assay: FGFR Enzymatic Assay (FRET detection of peptide phosphorylation)
Format: biochemical
Conditions: pre-incubated for 4 hours, read-out: FGFR3_Ki
How it was run: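 Wild-type un-phosphorylated FGFR3, preincubated 5–15 min with inhibitor in HEPES pH 7.5/MgCl2/DTT buffer, then peptide phosphorylation for 1 hr at 25 °C (ATP Km pre-determined). Quenched with EDTA/staurosporin; Eu-PY20/APC-streptavidin FRET read; IC50 from four-parameter logistic fit.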

Sequence of wild-type un-phosphorylated FGFR3 protein (P22607 23-806): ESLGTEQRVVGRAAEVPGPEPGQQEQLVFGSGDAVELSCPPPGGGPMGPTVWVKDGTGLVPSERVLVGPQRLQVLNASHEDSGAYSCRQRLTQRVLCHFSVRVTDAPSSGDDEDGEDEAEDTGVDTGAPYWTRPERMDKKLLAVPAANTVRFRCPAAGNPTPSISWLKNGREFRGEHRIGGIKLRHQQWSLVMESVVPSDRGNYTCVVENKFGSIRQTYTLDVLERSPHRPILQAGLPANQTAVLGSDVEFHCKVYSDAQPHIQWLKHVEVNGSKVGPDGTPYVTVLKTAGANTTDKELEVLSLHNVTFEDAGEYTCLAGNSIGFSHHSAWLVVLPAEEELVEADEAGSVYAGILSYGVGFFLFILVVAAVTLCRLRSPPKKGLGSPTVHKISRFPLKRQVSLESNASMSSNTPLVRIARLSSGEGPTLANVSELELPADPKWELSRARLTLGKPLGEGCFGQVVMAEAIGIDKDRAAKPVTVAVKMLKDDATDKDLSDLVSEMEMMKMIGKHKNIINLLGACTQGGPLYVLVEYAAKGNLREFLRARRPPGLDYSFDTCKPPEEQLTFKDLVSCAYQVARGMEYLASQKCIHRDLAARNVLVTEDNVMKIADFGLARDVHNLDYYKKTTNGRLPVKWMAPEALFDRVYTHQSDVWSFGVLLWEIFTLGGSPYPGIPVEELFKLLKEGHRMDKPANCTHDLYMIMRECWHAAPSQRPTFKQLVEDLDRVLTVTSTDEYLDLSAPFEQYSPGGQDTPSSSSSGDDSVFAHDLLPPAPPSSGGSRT

| SMILES | Ki [nM] |
| --- | --- |
| CN1CCC(c2nc3c4nc(-c5cnn(C)c5)cnc4ccc3n2C)CC1 [Example 23, 3-Methyl-8-(1-methyl-1H-pyrazol-4-yl)-2-(1-methylpiperidin-4-yl)-3H-imidazo[4,5-f]quinoxaline] | ≥ 400 |
| CCc1c(-c2ccccc2Cl)nc2c3cc(-c4cnn(C)c4)cnc3ccn12 [Example 9, 2-(2-Chlorophenyl)-3-ethyl-9-(1-methyl-1H-pyrazol-4-yl)imidazo[2,1-f][1,6]naphthyridine] | 10 to 100 |
| C=CC(=O)Nc1cccc(-c2nc3c4cc(-c5cnn(C)c5)cnc4ccn3c2C)c1 [Example 35, N-(3-(3-Methyl-9-(1-methyl-1H-pyrazol-4-yl)imidazo[2,1-f][1,6]naphthyridin-2-yl)phenyl)acrylamide] | 10 to 100 |
| Cc1c(-c2c(F)cccc2C#N)nc2c3cc(-c4cnn([C@H]5CCN(C(=O)CO)C5)c4)cnc3ccn12 [Example 27, (S)-3-Fluoro-2-(9-(1-(1-(2-hydroxyacetyl)pyrrolidin-3-yl)-1H-pyrazol-4-yl)-3-methylimidazo[2,1-f][1,6]naphthyridin-2-yl)benzonitrile] | 10 to 100 |
| CC(C)n1cc(-c2cnc3ccn4c(CO)c(-c5c(Cl)cccc5Cl)nc4c3c2)cn1 [Example 73, (2-(2,6-Dichlorophenyl)-9-(1-isopropyl-1H-pyrazol-4-yl)imidazo[2,1-f][1,6]naphthyridin-3-yl)methanol] | < 10 |
| Cn1c(-c2c(F)cccc2Cl)nc2c3nc(-c4cnn(C5CC(O)C5)c4)cnc3ccc21 (centres unmarked) [Example 21, 3-(4-(2-(2-Chloro-6-fluorophenyl)-3-methyl-3H-imidazo[4,5-f]quinoxalin-8-yl)-1H-pyrazol-1-yl)cyclobutan-1-ol] | < 10 |
| CN1CCC(n2cc(-c3cnc4ccn5c(CO)c(-c6c(Cl)cccc6Cl)nc5c4c3)cn2)CC1 [Example 78, (2-(2,6-Dichlorophenyl)-9-(1-(1-methylpiperidin-4-yl)-1H-pyrazol-4-yl)imidazo[2,1-f][1,6]naphthyridin-3-yl)methanol] | < 10 |
| O=C(O)c1ccc(Cn2cc(-c3cnc4ccn5cc(-c6c(Cl)cccc6Cl)nc5c4c3)cn2)cc1F [Example 42, 4-((4-(2-(2,6-Dichlorophenyl)imidazo[2,1-f][1,6]naphthyridin-9-yl)-1H-pyrazol-1-yl)methyl)-2-fluorobenzoic acid] | < 10 |
| Cc1cccc(C)c1-c1nc2c3cc(-c4cnn([C@H]5CCN(C(=O)CO)C5)c4)cnc3ccn2c1C [Example 26, (S)-1-(3-(4-(2-(2,6-Dimethylphenyl)-3-methylimidazo[2,1-f][1,6]naphthyridin-9-yl)-1H-pyrazol-1-yl)pyrrolidin-1-yl)-2-hydroxyethan-1-one] | < 10 |

Now from value to compound:

| Ki [nM] | SMILES |
| --- | --- |
| < 10 | O=C(N1CCOCC1)N1CC[C@H](n2cc(-c3cnc4ccn5c(CO)c(-c6c(Cl)cccc6Cl)nc5c4c3)cn2)C1 [Example 57, (S)-(3-(4-(2-(2,6-Dichlorophenyl)-3-(hydroxymethyl)imidazo[2,1-f][1,6]naphthyridin-9-yl)-1H-pyrazol-1-yl)pyrrolidin-1-yl)(morpholino)methanone] |
| < 10 | OCc1c(-c2c(Cl)cccc2Cl)nc2c3cc(-c4cnn(C(F)F)c4)cnc3ccn12 [Example 74, (2-(2,6-Dichlorophenyl)-9-(1-(difluoromethyl)-1H-pyrazol-4-yl)imidazo[2,1-f][1,6]naphthyridin-3-yl)methanol] |
| < 10 | CC(=O)N1CC[C@H](n2cc(-c3cnc4ccn5c(CO)c(-c6ccccc6Cl)nc5c4c3)cn2)C1 [Example 64, (S)-1-(3-(4-(2-(2-Chlorophenyl)-3-(hydroxymethyl)imidazo[2,1-f][1,6]naphthyridin-9-yl)-1H-pyrazol-1-yl)pyrrolidin-1-yl)ethan-1-one] |
| < 10 | OCc1c(-c2c(Cl)cccc2Cl)nc2c3cc(-c4cnn(C5COC5)c4)cnc3ccn12 [Example 71, (2-(2,6-Dichlorophenyl)-9-(1-(oxetan-3-yl)-1H-pyrazol-4-yl)imidazo[2,1-f][1,6]naphthyridin-3-yl)methanol] |
| < 10 | Cc1c(-c2c(Cl)cccc2Cl)nc2c3cc(-c4cnn(C5CN(C(=O)C6(N)CC6)C5)c4)cnc3ccn12 [Example 37, (1-Aminocyclopropyl)(3-(4-(2-(2,6-dichlorophenyl)-3-methylimidazo[2,1-f][1,6]naphthyridin-9-yl)-1H-pyrazol-1-yl)azetidin-1-yl)methanone] |
| < 10 | Cc1c(-c2c(Cl)cccc2Cl)nc2c3cc(-c4cnn(C5CCC(C)(C(=O)O)CC5)c4)cnc3ccn12 (centres unmarked) [Example 49, 4-(4-(2-(2,6-Dichlorophenyl)-3-methylimidazo[2,1-f][1,6]naphthyridin-9-yl)-1H-pyrazol-1-yl)-1-methylcyclohexane-1-carboxylic acid] |
| < 10 | CC(O)c1c(-c2c(Cl)cccc2Cl)nc2c3cc(-c4cnn([C@H]5CCN(C(=O)CO)C5)c4)cnc3ccn12 (stereo partly drawn) [Example 58, 1-((3S)-3-(4-(2-(2,6-dichlorophenyl)-3-(1-hydroxyethyl)imidazo[2,1-f][1,6]naphthyridin-9-yl)-1H-pyrazol-1-yl)pyrrolidin-1-yl)-2-hydroxyethan-1-one] |
| < 10 | O=C(CO)N1CC[C@H](n2cc(-c3cnc4ccn5c(CO)c(-c6c(Cl)cccc6Cl)nc5c4c3)cn2)C1 [Example 55, (S)-1-(3-(4-(2-(2,6-Dichlorophenyl)-3-(hydroxymethyl)imidazo[2,1-f][1,6]naphthyridin-9-yl)-1H-pyrazol-1-yl)pyrrolidin-1-yl)-2-hydroxyethan-1-one] |
